Values quoted from earlier work as cited in PMC7217150, “Synthesis, Modification, and Biological Evaluation of a Library of Novel Water‐Soluble Thiopyridone‐Based Organometallic Complexes and Their Unexpected (Biological) Behavior” (Chemistry (Weinheim an Der Bergstrasse, Germany), 2020).

What was measured:
SW480 = conditions: SW480, MTT assay, 96 h; cited from earlier work
A549 = conditions: A549, MTT assay, 96 h; cited from earlier work
[1] = test system: human cancer cell lines CH1/PA‐1, SW480, A549; set-up: method as in PMID 26365319; conditions: cited from earlier work
CH1/PA‐1 = conditions: CH1/PA‐1, MTT assay, 96 h; cited from earlier work

N.N.[Cl][Pt][Cl] [Cisplatin]
IC50 (SW480): 3500 ± 300 nM
IC50 (A549): 1300 ± 400 nM
activity in CH1/PA‐1 cells relative to SW480 cells [1]: up to 22 times
IC50 (CH1/PA‐1): 160 ± 30 nM
